From ChEMBL document CHEMBL3792312, “Synthesis and docking studies of pyrazine-thiazolidinone hybrid scaffold targeting dormant tuberculosis” (Bioorg Med Chem Lett, 2016)
Converted amounts (≈) assume the structure as drawn.

Legend:
[1] = test system: Escherichia coli; assay: Antibacterial activity against Escherichia coli at 30 ug after 8 hrs; type: functional
[2] = test system: Mycobacterium tuberculosis; assay: Antitubercular activity against dormant Mycobacterium tuberculosis H37Ra after 12 days by XTT-Menadione assay; type: functional, organism-based; settings: 288 h
[3] = test system: A549; assay: (§1) Cytotoxicity against human A549 cells after 3 days by MTT assay; type: cell-based; settings: Homo sapiens, A549, 72 h
[4] = as §1; type: cell-based; settings: human, A549 cells; read-out: MIC
[5] = test system: Escherichia coli; assay: Antibacterial activity against Escherichia coli at 3 ug after 8 hrs; type: functional
[6] = test system: Staphylococcus aureus; assay: Antibacterial activity against Staphylococcus aureus at 10 ug after 12 hrs; type: functional
[7] = test system: Bacillus subtilis; assay: Antibacterial activity against Bacillus subtilis at 10 ug after 12 hrs; type: functional
[8] = test system: Mycolicibacterium smegmatis; assay: Antitubercular activity against dormant Mycobacterium smegmatis MC2 155 at 3 ug after 12 days by XTT-Menadione assay; type: functional, str. MC2 155
[9] = test system: Mycobacterium tuberculosis; assay: Antitubercular activity against dormant Mycobacterium tuberculosis H37Ra at 3 ug after 12 days by XTT-Menadione assay; type: functional
[10] = test system: Staphylococcus aureus; assay: Antibacterial activity against Staphylococcus aureus at 30 ug after 12 hrs; type: functional
[11] = Cytotoxicity against human PANC1 cells after 5 days by MTT assay; type: cell-based, PANC-1; settings: for IC50: Homo sapiens, PANC-1, 120 h; for MCC at 120 h: human, PANC1 cells, read-out: MIC
[12] = test system: Mycolicibacterium smegmatis; assay: Antitubercular activity against dormant Mycobacterium smegmatis MC2 155 at 10 ug after 12 days by XTT-Menadione assay; type: functional, str. MC2 155
[13] = test system: Staphylococcus aureus; assay: Antibacterial activity against Staphylococcus aureus at 3 ug after 12 hrs; type: functional
[14] = Cytotoxicity against human THP1 cells after 5 days by MTT assay; type: cell-based, THP-1; settings: for IC50: Homo sapiens, THP-1, 120 h; for MCC at 120 h: human, THP1 cells, read-out: MIC
[15] = (§2) Cytotoxicity against human MCF7 cells after 4 days by MTT assay; type: cell-based; settings: human, MCF7 cells; read-out: MIC
[16] = test system: MCF7; assay: as §2; type: cell-based; settings: Homo sapiens, MCF7, 96 h
[17] = test system: Mycobacterium tuberculosis; assay: Antitubercular activity against dormant Mycobacterium tuberculosis H37Ra at 10 ug after 12 days by XTT-Menadione assay; type: functional
[18] = test system: Bacillus subtilis; assay: Antibacterial activity against Bacillus subtilis at 30 ug after 12 hrs; type: functional
[19] = test system: Pseudomonas fluorescens; assay: Antibacterial activity against Pseudomonas fluorescens at 30 ug after 8 hrs; type: functional
[20] = test system: Mycobacterium tuberculosis; assay: Antitubercular activity against dormant Mycobacterium tuberculosis H37Ra at 30 ug after 12 days by XTT-Menadione assay; type: functional
[21] = test system: Pseudomonas fluorescens; assay: Antibacterial activity against Pseudomonas fluorescens at 10 ug after 8 hrs; type: functional
[22] = test system: Mycolicibacterium smegmatis; assay: Antitubercular activity against dormant Mycobacterium smegmatis MC2 155 at 30 ug after 12 days by XTT-Menadione assay; type: functional, str. MC2 155
[23] = test system: Escherichia coli; assay: Antibacterial activity against Escherichia coli at 10 ug after 8 hrs; type: functional
[24] = test system: Bacillus subtilis; assay: Antibacterial activity against Bacillus subtilis at 3 ug after 12 hrs; type: functional
[25] = test system: Pseudomonas fluorescens; assay: Antibacterial activity against Pseudomonas fluorescens at 3 ug after 8 hrs; type: functional

COc1cc([C@@H]2SCC(=O)N2NC(=O)c2cnc(C)cn2)ccc1O
inhibition (INH) [1]: -53.27%
IC50 [2]: 0.997 µg/mL (≈ 2.77 µM)
MIC [2]: 27.9 µg/mL (≈ 77.3 µM)
IC50 [3]: 62.3 µg/mL (≈ 173 µM)
MCC at 72 h [4]: > 100 µg/mL
inhibition (INH) [5]: 33.04%
inhibition (INH) [6]: 23.58%
inhibition (INH) [7]: 8.59%
inhibition (INH) [8]: -19.102%
inhibition (INH) [9]: 66.03%
inhibition (INH) [10]: -0.17%
IC50 [11]: > 100 µg/mL
MCC at 120 h [11]: > 100 µg/mL
inhibition (INH) [12]: 33.4%
inhibition (INH) [13]: 42.47%
IC50 [14]: 86.9 µg/mL (≈ 241 µM)
MCC at 120 h [14]: > 100 µg/mL
MCC at 96 h [15]: > 100 µg/mL
IC50 [16]: 70.2 µg/mL (≈ 195 µM)
inhibition (INH) [17]: 70.7%
inhibition (INH) [18]: 19.67%
inhibition (INH) [19]: 47.41%
inhibition (INH) [20]: 91.2%
inhibition (INH) [21]: 33.16%
inhibition (INH) [22]: -19.0256%
inhibition (INH) [23]: -54.14%
inhibition (INH) [24]: 14.34%
inhibition (INH) [25]: -2.64%

COc1ccc([C@H]2SCC(=O)N2NC(=O)c2nccnc2N)cc1OC
inhibition (INH) [1]: 4.659%
IC50 [2]: 0.718 µg/mL (≈ 1.91 µM)
MIC [2]: 25.8 µg/mL (≈ 68.8 µM)
IC50 [3]: 80 µg/mL (≈ 213 µM)
MCC at 72 h [4]: > 100 µg/mL
inhibition (INH) [5]: 70.93%
inhibition (INH) [6]: 6.63%
inhibition (INH) [7]: 22.5%
inhibition (INH) [8]: 50.59%
inhibition (INH) [9]: 50.37%
inhibition (INH) [10]: 34.19%
IC50 [11]: > 100 µg/mL
MCC at 120 h [11]: > 100 µg/mL
inhibition (INH) [12]: 35.96%
inhibition (INH) [13]: 26.84%
IC50 [14]: 85.4 µg/mL (≈ 228 µM)
MCC at 120 h [14]: > 100 µg/mL
MCC at 96 h [15]: > 100 µg/mL
IC50 [16]: 86.2 µg/mL (≈ 230 µM)
inhibition (INH) [17]: 70.88%
inhibition (INH) [18]: 9.92%
inhibition (INH) [19]: 41.19%
inhibition (INH) [20]: 90.99%
inhibition (INH) [21]: 22.77%
inhibition (INH) [22]: 31.62%
inhibition (INH) [23]: 50.22%
inhibition (INH) [24]: 8.28%
inhibition (INH) [25]: 30.31%

Cc1cnc(C(=O)NN2C(=O)CS[C@@H]2c2cccc([N+](=O)[O-])c2)cn1
inhibition (INH) [1]: 70.21%
IC50 [2]: 4.29 µg/mL (≈ 11.9 µM)
MIC [2]: 29 µg/mL (≈ 80.7 µM)
IC50 [3]: > 100 µg/mL
MCC at 72 h [4]: > 100 µg/mL
inhibition (INH) [5]: 47.15%
inhibition (INH) [6]: 33.4%
inhibition (INH) [7]: 0.21%
inhibition (INH) [8]: 57.26%
inhibition (INH) [9]: 48.93%
inhibition (INH) [10]: 17.56%
IC50 [11]: > 100 µg/mL
MCC at 120 h [11]: > 100 µg/mL
inhibition (INH) [12]: 20.19%
inhibition (INH) [13]: -1.03%
IC50 [14]: > 100 µg/mL
MCC at 120 h [14]: > 100 µg/mL
MCC at 96 h [15]: > 100 µg/mL
IC50 [16]: > 100 µg/mL
inhibition (INH) [17]: 56.26%
inhibition (INH) [18]: 4.11%
inhibition (INH) [19]: 42.75%
inhibition (INH) [20]: 91.39%
inhibition (INH) [21]: 33.6%
inhibition (INH) [22]: 19.6%
inhibition (INH) [23]: 53.08%
inhibition (INH) [24]: 3.26%
inhibition (INH) [25]: 20.43%

Cc1cnc(C(=O)NN2C(=O)CS[C@@H]2c2ccc([N+](=O)[O-])cc2)cn1
inhibition (INH) [1]: 62.08%
IC50 [2]: 0.528 µg/mL (≈ 1.47 µM)
MIC [2]: 27.5 µg/mL (≈ 76.6 µM)
IC50 [3]: > 100 µg/mL
MCC at 72 h [4]: > 100 µg/mL
inhibition (INH) [5]: 56.92%
inhibition (INH) [6]: -8.13%
inhibition (INH) [7]: 22.68%
inhibition (INH) [8]: 57.99%
inhibition (INH) [9]: 72.31%
inhibition (INH) [10]: 13.12%
IC50 [11]: > 100 µg/mL
MCC at 120 h [11]: > 100 µg/mL
inhibition (INH) [12]: 42.01%
inhibition (INH) [13]: 9.39%
IC50 [14]: > 100 µg/mL
MCC at 120 h [14]: > 100 µg/mL
MCC at 96 h [15]: > 100 µg/mL
IC50 [16]: > 100 µg/mL
inhibition (INH) [17]: 73.66%
inhibition (INH) [18]: 13.11%
inhibition (INH) [19]: 22.82%
inhibition (INH) [20]: 91.72%
inhibition (INH) [21]: 7.48%
inhibition (INH) [22]: 10.44%
inhibition (INH) [23]: 37.74%
inhibition (INH) [24]: 21.45%
inhibition (INH) [25]: 26.73%

CCOc1cc([C@H]2SCC(=O)N2NC(=O)c2nccnc2N)ccc1O
inhibition (INH) [1]: -33.02%
IC50 [2]: 3.46 µg/mL (≈ 9.22 µM)
MIC [2]: 28.6 µg/mL (≈ 76.3 µM)
IC50 [3]: 84.2 µg/mL (≈ 224 µM)
MCC at 72 h [4]: > 100 µg/mL
inhibition (INH) [5]: -48.72%
inhibition (INH) [6]: -5.22%
inhibition (INH) [7]: -16.24%
inhibition (INH) [8]: 12.74%
inhibition (INH) [9]: 48.5%
inhibition (INH) [10]: 24.55%
IC50 [11]: > 100 µg/mL
MCC at 120 h [11]: > 100 µg/mL
inhibition (INH) [12]: 38.28%
inhibition (INH) [13]: 4.98%
IC50 [14]: 68.9 µg/mL (≈ 183 µM)
MCC at 120 h [14]: > 100 µg/mL
MCC at 96 h [15]: > 100 µg/mL
IC50 [16]: 80.8 µg/mL (≈ 215 µM)
inhibition (INH) [17]: 65%
inhibition (INH) [18]: 9.32%
inhibition (INH) [19]: 40.87%
inhibition (INH) [20]: 91.26%
inhibition (INH) [21]: 20.37%
inhibition (INH) [22]: -15.9058%
inhibition (INH) [23]: -9.65%
inhibition (INH) [24]: 22.27%
inhibition (INH) [25]: -6.51%
